One data set deals with NHDF. Briefly: Cytotoxicity against HDF cells assessed as reduction in cell viability at 10 uM incubated for 24 to 48 hrs by MTT assay. Type of data set: toxicity, cell-based. The note with it: human, time 24-48 hrs. On the technique in general: Formazan colour is commonly taken as a measure of viable cells.
Data set [1] deals with Mitogen-activated protein kinase; ERK1/ERK2 (Homo sapiens) (UniProt P27361+P28482). In words: Induction of ERK1/2 phosphorylation in HDF cells at 10 uM incubated at 0.5 to 24 hrs by Western blot analysis. The note with it: filed as activator, time 0.5-24 hrs. Type of data set: cell-based. (A western blot detects proteins with antibodies after separation by electrophoresis.)
Chain of Mitogen-activated protein kinase; ERK1/ERK2 (Homo sapiens) (P27361 whole entry, looked up): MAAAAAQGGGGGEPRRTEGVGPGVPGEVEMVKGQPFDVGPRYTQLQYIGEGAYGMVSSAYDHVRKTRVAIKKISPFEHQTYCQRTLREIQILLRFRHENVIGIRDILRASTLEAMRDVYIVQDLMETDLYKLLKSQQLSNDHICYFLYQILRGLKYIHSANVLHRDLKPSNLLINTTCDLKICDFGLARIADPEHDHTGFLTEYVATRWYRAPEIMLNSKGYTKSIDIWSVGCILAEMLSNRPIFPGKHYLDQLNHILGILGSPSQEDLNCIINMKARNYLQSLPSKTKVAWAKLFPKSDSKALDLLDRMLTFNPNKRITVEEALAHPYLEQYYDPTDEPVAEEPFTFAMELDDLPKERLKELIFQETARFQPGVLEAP
Chain of Mitogen-activated protein kinase; ERK1/ERK2 (Homo sapiens) (P28482 whole entry, looked up): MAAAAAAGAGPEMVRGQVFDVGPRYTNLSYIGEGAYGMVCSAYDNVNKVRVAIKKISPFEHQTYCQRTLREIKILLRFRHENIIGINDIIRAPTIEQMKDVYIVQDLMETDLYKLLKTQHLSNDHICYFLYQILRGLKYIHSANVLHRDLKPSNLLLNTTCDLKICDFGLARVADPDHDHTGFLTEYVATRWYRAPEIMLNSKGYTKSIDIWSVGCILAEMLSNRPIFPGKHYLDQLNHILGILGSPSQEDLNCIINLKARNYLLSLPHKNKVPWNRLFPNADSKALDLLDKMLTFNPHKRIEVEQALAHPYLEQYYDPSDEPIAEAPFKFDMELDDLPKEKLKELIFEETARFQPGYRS

For data set [2], the system named is HDF. Briefly: Induction of JNK phosphorylation in HDF cells at 10 uM incubated at 0.5 to 24 hrs by Western blot analysis. It counts as cell-based. The note with it: Homo sapiens, filed as activator, time 0.5-24 hrs.
Data set [3] relates to HDF. Briefly: Induction of p38 phosphorylation in HDF cells at 10 uM incubated at 0.5 to 24 hrs by Western blot analysis. Type of data set: cell-based. The note with it: Homo sapiens, time 0.5-24 hrs.

Structures are written as SMILES. Calls of active or inactive are those of the source. The rule behind the calls is not given here.

With `CC(=O)O[C@@H]1[C@H](O)C2=C(C(=O)N([C@@H](CC(C)C)C(=O)O)C2)[C@@]2(C)CCCC(C)(C)[C@H]12`, the Activity entry in the data set on NHDF was “Non-Toxic”. Also, the outcome (in data set [1]; with HDF [2]) was Active. Also, the outcome in the data set on HDF [3] was inactive.

Consider `CC[C@H](C)[C@@H](C(=O)O)N1CC2=C(C1=O)[C@@]1(C)CCCC(C)(C)[C@@H]1[C@H](OC(C)=O)[C@@H]2O`, for which, in the data set on NHDF, the Activity result is “Non-Toxic”. Besides, the result (in data set [1]; with HDF [2]) was Active. Also, the result in the data set with HDF [3] was inactive.

Take `CC(=O)O[C@@H]1[C@H](O)C2=C(C(=O)N([C@@H](Cc3ccccc3)C(=O)O)C2)[C@@]2(C)CCCC(C)(C)[C@H]12`: in the data set on NHDF, the Activity result is “Non-Toxic”. The outcome (in data set [1]; with HDF [2]) was Active. For the same compound, the outcome in the data set with HDF [3] was inactive.

With `CC(=O)O[C@@H]1[C@H](O)C2=C(C(=O)N([C@H](C(=O)O)C(C)C)C2)[C@@]2(C)CCCC(C)(C)[C@H]12`, the Activity entry in the data set on NHDF is listed as “Non-Toxic”. The result (in data set [1]; with HDF [2]) was Active. The outcome in the data set on HDF [3] was inactive.

`CC(=O)O[C@@H]1[C@H](O)C2=C(C(=O)N([C@H](C(=O)O)[C@@H](C)O)C2)[C@@]2(C)CCCC(C)(C)[C@H]12`: the Activity result in the data set on NHDF was “Non-Toxic”. Also, the result (in data set [1]; with HDF [2]) was Active. Besides, the outcome in the data set with HDF [3] was inactive.

With `CC(=O)O[C@@H]1[C@H](O)C2=C(C(=O)N([C@@H](C)C(=O)O)C2)[C@@]2(C)CCCC(C)(C)[C@H]12`, the Activity result in the data set on NHDF was “Non-Toxic”. Moreover, the result (in data set [1]; in the data set on HDF [2]) was Active. For the same compound, in the data set on HDF [3], the outcome was inactive.

For the compound `CC(=O)O[C@@H]1[C@H](O)C2=C(C(=O)N(CC(=O)O)C2)[C@@]2(C)CCCC(C)(C)[C@H]12`, the Activity entry in the data set with NHDF is “Non-Toxic”. Also, the result (in data set [1]; in the data set with HDF [2]) was Active. Besides, in the data set on HDF [3], the result was inactive.

(Values after ChEMBL document CHEMBL5579902, “Medullins A-H, Sesquiterpenes from Perenniporia medulla-panis, and Their Cellular Signaling Mechanism in HDF Cells” (J Nat Prod, 2024).)
